{"source": "patent US20260158002A1", "about": "“APPLICATION OF COMPOSITION CONTAINING EDARAVONE AND DEXBORNEOL IN IMPROVING OR TREATING COGNITIVE IMPAIRMENT” (NEURODAWN PHARMACEUTICAL CO., LTD., priority 2021, published 2026)", "key": {"SH-SY5Y-APP695": {"system": "SH-SY5Y-APP695", "conditions": "0.3 to 3 μM; cited from earlier work"}, "primary cortical neurons": {"system": "primary cortical neurons", "assay": "Aβ1-42-induced primary cortical neuronal injury test (Luminescent Cell Viability Assay)", "assay_type": "cell-based, rat", "conditions": "single agent, pre-incubation 30 min before oligomerized Aβ1-42 50 μM, 24 h; edaravone 3.7 to 100 μM, dexborneol 1.2 to 100 μM; vs DMSO group", "protocol": "A SD pregnant rat at 18 days of pregnancy was sacrificed by cervical dislocation, the uteruses of the rat were dissected, the brain of E18 fetal rat was taken out, the cerebral cortical tissue of the fetal rat was isolated into an ice-cold DMEM, the meninge and blood vessels were removed from the cortical tissue under a dissecting microscope, the cortical tissue was transferred to an ice-cold DMEM and minced (about 1 mm^3), and digested with trypsin at 37° C. for 10 min, the digestion was terminated with FBS, a Pasteur pipette was used to perform gentle pipetting and dispersing, and screening was then performed using a 200-mesh sieve. […] The cells were counted by a hemocytometer, diluted to 5×10^5 cells/ml with a complete medium, and seeded in a 96-well plate coated with PDL (100 μL/well) for culture. […]\nThe medium of the in vitro matured primary neurons was replaced with a complete medium containing different concentrations (1.2, 3.7, 11.1, 33.3, 100.0 μM) of edaravone (E), dexborneol (B) or an edaravone and dexborneol composition (EB), after incubation at 37° C. for 30 min, oligomerized Aβ1-42 (final concentration of 50 μM) was added, the culture was continued for 24 h, and the neuronal viability was tested. […] LUMbackground is the background reading of the cell-free medium well into which Luminescent Cell Viability Assay kit is added. […]"}, "ICV-STZ model rats": {"system": "ICV-STZ model rats", "conditions": "cited from earlier work"}, "[1]": {"system": "APP/PS1 transgenic mouse model", "conditions": "cited from earlier work"}, "Aβ1-42": {"target": "Aβ1-42 (Homo sapiens, UniProt P05067)", "sequence (P05067 672-713 limits assumed)": "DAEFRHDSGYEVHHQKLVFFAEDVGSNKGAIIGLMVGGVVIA", "conditions": "in vitro; concentration range of 0.156 to 5 μM; cited from earlier work"}, "[2]": {"system": "rat model of L-methionine-induced vascular dementia", "conditions": "intraperitoneal 6 mg/kg/day for 9 consecutive weeks; cited from earlier work"}, "5×FAD transgenic mice": {"system": "5×FAD transgenic mice", "assay": "Y maze test in 5×FAD transgenic mice", "assay_type": "in vivo, mouse", "conditions": "5×FAD mice; edaravone 6 mg/kg or composition 7.5 mg/kg i.p. once daily for 16 weeks", "protocol": "In the experiment, the animals were divided into 4 groups. Administration was performed on the mice in each group from 8 weeks of age. After 16 weeks of continuous daily administration, water maze and Y maze behavioral tests were performed. After the behavioral tests were completed, the animals were sacrificed, and brain slice electrophysiology and AD pathology within the brain were tested, including the test of Aβ plaques, biomarkers such as GFAP and Iba-1, p-Tau, etc.\n5×FAD: edaravone group: ten 5×FAD mice were given edaravone ( ? ®) 6 mg/kg via i.p. at a dose of 10.0 mL/kg once daily.\n5×FAD: composition group: ten 5×FAD mice were given 7.5 mg/kg edaravone and dexborneol concentrated solution for injection ( ? ®) (edaravone:dexborneol=4:1, containing 6 mg/kg edaravone and 1.5 mg/kg dexborneol) at a dose of 10.0 ml/kg once daily. […]\nTesting: After 1 h of training, the baffle was removed, the channel of the Y maze was wiped with alcohol to remove the odor of the previous mouse, the mouse to be tested was placed in the same position for 5 min and video recording was performed, and the number of times the mouse entered the newly opened arm as a percentage of the total number of times it entered the three arms was recorded in the test.\nData were expressed as Mean±SEM. […]"}}, "data": [{"smiles": "CC1=NN(c2ccccc2)C(=O)C1", "note": "[edaravone, 3-methyl-1-phenyl-2-pyrazolin-5-one]", "values": [{"measurement": "BACE1 expression, cleavage of APP and Aβ production", "setting": "SH-SY5Y-APP695", "result": "capable of reducing BACE1 expression, cleavage of APP and Aβ production in a concentration-dependent manner"}, {"measurement": "GSK-3β activation and tau phosphorylation", "setting": "SH-SY5Y-APP695", "result": "inhibiting GSK-3β activation and reducing tau phosphorylation"}, {"measurement": "inhibiting Aβ-induced neurotoxicity, increasing the cell viability", "setting": "primary cortical neurons", "result": "capable of inhibiting Aβ-induced neurotoxicity in a concentration-dependent manner"}, {"measurement": "spatial learning and memory (Morris water maze) and non-spatial long-term memory (step-down passive avoidance)", "setting": "ICV-STZ model rats; intraperitoneal 9 mg/kg/day for 14 consecutive days", "result": "can significantly improve the spatial learning and memory"}, {"measurement": "cognitive function in water maze test and passive avoidance test", "setting": "ICV-STZ model rats; oral 1, 3 and 10 mg/kg/day for 28 consecutive days", "result": "can also improve the cognitive function of ICV-STZ rats in water maze test and passive avoidance test"}, {"measurement": "deficits in the cognitive function in water maze test", "setting": "[1]; APP/PS1 mice, 12.6 mg/kg intraperitoneal twice a week, prophylactic (3 to 9 months) and therapeutic (9 to 12 months)", "result": "can improve the deficits in the cognitive function in water maze test"}, {"measurement": "cognitive function of aged transgenic mice", "setting": "[1]; APP/PS aged mice (14 to 17 months), oral with drinking water 8, 24 and 72 mg/kg/day", "result": "significantly improves the cognitive function of aged transgenic mice"}, {"measurement": "Aβ plaque deposition within the brain and cognitive function", "setting": "[1]; mice aged 3-12 months, oral with drinking water 33.2 mg/kg/day", "result": "can also reduce Aβ plaque deposition within the brain and improve the cognitive function of mice"}, {"measurement": "aggregation of Aβ1-42 monomer as Aβ fibrils and disaggregation of Aβ fibrils", "setting": "Aβ1-42", "result": "capable of inhibiting the aggregation of Aβ1-42 monomer as Aβ fibrils and disaggregating Aβ fibrils in a concentration-dependent manner"}, {"measurement": "spatial learning and memory in eight-arm water maze test", "setting": "[2]", "result": "can significantly improve the spatial learning and memory of the model rats in eight-arm water maze test"}, {"measurement": "number of times the mouse entered the newly opened arm in Y maze, vs solvent control", "setting": "5×FAD transgenic mice", "result": "could significantly increase the number of times the mouse entered the newly opened arm"}]}]}
